Experimental findings from US9604982B2, “P2X7 modulators” (Janssen Pharmaceutica NV, priority 2013, dated 2017) are described below.

In this assay the target is P2X7 (Homo sapiens (Human), UniProt Q99572). Put plainly: P2X7 antagonism in human peripheral blood mononuclear cells (PBMCs), IL-1β release after LPS + Bz-ATP (ELISA). The note with it: 0.5 mM Bz-ATP; for remaining activity at 10 µM: P2X7, Table 2, 10 μM compound, read-out: PBMC 10 μM (% control); for PBMC 10 μM (% control): Table 3 (additional runs), 10 μM compound. In kind it is cell-based. Here is the method: Human blood was collected using a blood donor program. […] Cells were incubated for an additional 1.5 hours. […] Data are analyzed and graphed on Graphpad Prism 5. […] The IC50 for each compound is then uploaded into 3DX.
For orientation: ELISA stands for enzyme-linked immunosorbent assay.

P2X7, sequence (Q99572 whole entry): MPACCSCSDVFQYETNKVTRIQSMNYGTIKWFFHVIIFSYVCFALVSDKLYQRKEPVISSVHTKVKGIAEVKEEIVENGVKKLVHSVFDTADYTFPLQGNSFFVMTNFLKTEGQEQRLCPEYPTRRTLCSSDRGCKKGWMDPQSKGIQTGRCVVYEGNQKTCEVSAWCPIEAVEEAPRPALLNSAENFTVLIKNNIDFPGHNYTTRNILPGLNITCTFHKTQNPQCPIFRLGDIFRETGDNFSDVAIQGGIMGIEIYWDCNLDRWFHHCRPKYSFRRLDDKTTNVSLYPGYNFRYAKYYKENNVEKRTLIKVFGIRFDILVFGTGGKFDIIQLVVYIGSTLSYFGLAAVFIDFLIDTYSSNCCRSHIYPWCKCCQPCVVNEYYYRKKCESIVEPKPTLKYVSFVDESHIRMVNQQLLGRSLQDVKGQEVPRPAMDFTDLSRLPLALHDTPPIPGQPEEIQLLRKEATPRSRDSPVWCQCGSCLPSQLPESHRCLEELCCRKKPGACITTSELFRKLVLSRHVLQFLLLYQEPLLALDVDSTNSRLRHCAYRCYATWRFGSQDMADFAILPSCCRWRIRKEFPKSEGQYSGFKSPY

As to `C[C@@H]1c2ncnc(-c3ccn[nH]3)c2CCN1C(=O)c1cccc(C(F)(F)F)c1Cl` (single isomer, unassigned) [Example 113, (R*)-(2-chloro-3-(trifluoromethyl)phenyl)(8-methyl-4-(1H-pyrazol-5-yl)-5,6-dihydropyrido[3,4-d]pyrimidin-7(8H)-yl)methanone], the remaining activity at 10 µM was -2.1% and the “PBMC 10 μM (% control)” value is −2.1 % control.

Turning to `C[C@H]1c2ncnc(-c3ccn[nH]3)c2CCN1C(=O)c1cccc(C(F)(F)F)c1Cl` (single isomer, unassigned) [Example 114, (S*)-(2-chloro-3-(trifluoromethyl)phenyl)(8-methyl-4-(1H-pyrazol-5-yl)-5,6-dihydropyrido[3,4-d]pyrimidin-7(8H)-yl)methanone], the remaining activity at 10 µM is -0.5% and the “PBMC 10 μM (% control)” value is on record as −0.5 % control.

With `C[C@@H]1c2ncnc(-c3ccn[nH]3)c2CCN1C(=O)c1ccc(F)c(C(F)(F)F)c1Cl` (single isomer, unassigned) [Example 116, (R*)-(2-chloro-4-fluoro-3-(trifluoromethyl)phenyl)(8-methyl-4-(1H-pyrazol-5-yl)-5,6-dihydropyrido[3,4-d]pyrimidin-7(8H)-yl)methanone], the remaining activity at 10 µM was -4.4% and the “PBMC 10 μM (% control)” value is reported as −4.4 % control.

Consider `C[C@H]1c2ncnc(-c3ccn[nH]3)c2CCN1C(=O)c1ccc(F)c(C(F)(F)F)c1Cl` (single isomer, unassigned) [Example 117, (S*)-(2-chloro-4-fluoro-3-(trifluoromethyl)phenyl)(8-methyl-4-(1H-pyrazol-5-yl)-5,6-dihydropyrido[3,4-d]pyrimidin-7(8H)-yl)methanone], for which the remaining activity at 10 µM stood at 0.1% and the “PBMC 10 μM (% control)” value was found to be 0.1 % control.

On to `C[C@@H]1c2ncnc(-c3ccn[nH]3)c2CCN1C(=O)c1ccc(F)c(Cl)c1Cl` (single isomer, unassigned) [Example 119, (R*)-(2,3-dichloro-4-fluorophenyl)(8-methyl-4-(1H-pyrazol-5-yl)-5,6-dihydropyrido[3,4-d]pyrimidin-7(8H)-yl)methanone], for which the remaining activity at 10 µM was -1.5% and the “PBMC 10 μM (% control)” value was −1.5 % control.

For the compound `C[C@H]1c2ncnc(-c3ccn[nH]3)c2CCN1C(=O)c1ccc(F)c(Cl)c1Cl` (single isomer, unassigned) [Example 120, (S*)-(2,3-dichloro-4-fluorophenyl)(8-methyl-4-(1H-pyrazol-5-yl)-5,6-dihydropyrido[3,4-d]pyrimidin-7(8H)-yl)methanone], the remaining activity at 10 µM was determined as 2.9% and the “PBMC 10 μM (% control)” value turned out to be 2.9 % control.

Consider `C[C@@H]1c2ncnc(-c3ccn[nH]3)c2CCN1C(=O)c1ccc(Cl)c(F)c1Cl` (single isomer, unassigned) [Example 122, (R*)-(2,4-dichloro-3-fluorophenyl)(8-methyl-4-(1H-pyrazol-5-yl)-5,6-dihydropyrido[3,4-d]pyrimidin-7(8H)-yl)methanone], for which the remaining activity at 10 µM was 4.1% and the “PBMC 10 μM (% control)” value was 4.1 % control.

On to `C[C@H]1c2ncnc(-c3ccn[nH]3)c2CCN1C(=O)c1ccc(Cl)c(F)c1Cl` (single isomer, unassigned) [Example 123, (S*)-(2,4-dichloro-3-fluorophenyl)(8-methyl-4-(1H-pyrazol-5-yl)-5,6-dihydropyrido[3,4-d]pyrimidin-7(8H)-yl)methanone], for which the remaining activity at 10 µM stood at 13.3%.

In the case of `Cc1nc2c(c(-c3ccn(CCF)n3)n1)C[C@@H](C)N(C(=O)c1cccc(C(F)(F)F)c1Cl)C2` (single isomer, unassigned) [Example 124, (R*)-(2-chloro-3-(trifluoromethyl)phenyl)(4-(1-(2-fluoroethyl)-1H-pyrazol-3-yl)-2,6-dimethyl-5,6-dihydropyrido[3,4-d]pyrimidin-7(8H)-yl)methanone], the remaining activity at 10 µM stood at 18.6%.
